# In article PMC11876601 (Molecular Systems Biology, 2025):
# pEC50: −log10 of the molar value. Several values for one entry are separate records, joined by “and”; a condition that tells them apart may be missing. Equal entries are not always repeated. Where two headings read alike, the source gives them in different places.
# Test system: AsPC-1 cells
# Experiment: Cell proliferation assay, chemodrug + ATR inhibitor (Incucyte confluence, 72 h);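 further: underlying read-out for every value is AsPC-1 confluence after 72 h incubation at 37 °C and 5% CO2, divided by that well's starting confluence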
# Settings: for Curve slope / Curve bottom / Curve top: fitted dose-response curve; for Curve bottom / Curve top: relative response; for AsPC-1 viability (ratio) / AsPC-1 viability mean (ratio) / Raw data (confluence at 72 h/confluence at 0 h): Gartisertib experiment; for pEC50 / EC50: Homo sapiens; for Ratio: Response / Response vehicle (mean)
# [1] = AsPC1, Experiment ATRi (ATR inhibitor alone)
# [2] = AsPC1, Experiment GEM+ATRi_dose1
# [3] = AsPC1, Experiment GEM+ATRi_dose2
# [4] = AsPC1, Experiment GEM+ATRi_dose3
# [5] = replicate R1, titrated drug dose 3 nM
# [6] = replicate R1, titrated drug dose 10 nM
# [7] = replicate R1, titrated drug dose 30 nM
# [8] = replicate R1, titrated drug dose 100 nM
# [9] = replicate R1, titrated drug dose 300 nM
# [10] = replicate R1, titrated drug dose 1000 nM
# [11] = replicate R1, titrated drug dose 3000 nM
# [12] = replicate R1, titrated drug dose 10000 nM
# [13] = replicate R2, titrated drug dose 3 nM
# [14] = replicate R2, titrated drug dose 10 nM
# [15] = replicate R2, titrated drug dose 30 nM
# [16] = replicate R2, titrated drug dose 100 nM
# [17] = replicate R2, titrated drug dose 300 nM
# [18] = replicate R2, titrated drug dose 1000 nM
# [19] = replicate R2, titrated drug dose 3000 nM
# [20] = replicate R2, titrated drug dose 10000 nM
# [21] = replicate R3, titrated drug dose 3 nM
# [22] = replicate R3, titrated drug dose 10 nM
# [23] = replicate R3, titrated drug dose 30 nM
# [24] = replicate R3, titrated drug dose 100 nM
# [25] = replicate R3, titrated drug dose 300 nM
# [26] = replicate R3, titrated drug dose 1000 nM
# [27] = replicate R3, titrated drug dose 3000 nM
# [28] = replicate R3, titrated drug dose 10000 nM
# Description: Cells were seeded at 5000 cells/well into 96-well flat bottom plates (Eppendorf) and allowed to attach overnight. […] Cells were incubated for 72 h at 37 °C and 5% CO2. Cell confluence readouts at 72 h were either normalized to their initial confluence using the Incucyte software (AsPC-1) or used without prior normalization (all others). […] Each experiment was performed in triplicates, the data was plotted as mean ± standard deviation (s.d.).
smiles,measurement,setting,value
Nc1nn2cc(F)cnc2c1C(=O)Nc1cncc(F)c1N1CCC(C(=O)N2CCN(C3COC3)CC2)CC1 [Gartisertib],Curve slope,[1],1.84 and 2.11 and 1.85
same,Curve bottom,[1],0.97 and 0.99 and 1.02
same,Curve top,[1],0.32 and 0.29 and 0.28
same,Curve slope,[2],1.70 and 3.25 and 2.63
same,Curve bottom,[2],0.97 and 0.89 and 0.93
same,Curve top,[2],0.47 and 0.39
same,Curve slope,[3],1.86 and 2.66 and 1.99
same,Curve bottom,[3],1.01 and 0.93 and 0.97
same,Curve top,[3],0.45 and 0.36
same,Curve bottom,[4],0.93 and 0.90 and 0.88
same,Curve top,[4],0.47 and 0.36
same,Response,"GEM 0 nM, ATRi 3 nM",2.96 and 3.43 and 3.57
same,Response,"GEM 0 nM, ATRi 10 nM",3.28 and 3.77 and 3.92
same,Response,"GEM 0 nM, ATRi 30 nM",3.05 and 3.68
same,Response,GEM 1 nM + ATRi 3 nM,3.14 and 3.82 and 3.86
same,Response,GEM 1 nM + ATRi 10 nM,3.23 and 3.93 and 3.90
same,Response,GEM 1 nM + ATRi 30 nM,2.84 and 3.74
same,Response,GEM 3 nM + ATRi 3 nM,3.14 and 3.83 and 3.74
same,Response,GEM 3 nM + ATRi 10 nM,3.01 and 3.70 and 3.66
same,Response,GEM 3 nM + ATRi 30 nM,3.03 and 3.39
same,Response,GEM 10 nM + ATRi 3 nM,2.77 and 3.58 and 3.45
same,Response,GEM 10 nM + ATRi 10 nM,2.54 and 2.78 and 2.71
same,Response,GEM 10 nM + ATRi 30 nM,1.88 and 1.90 and 1.98
same,Response,GEM 30 nM + ATRi 3 nM,2.10 and 2.28 and 2.14
same,Response,GEM 30 nM + ATRi 10 nM,1.63 and 1.61 and 1.64
same,Response,GEM 30 nM + ATRi 30 nM,1.75 and 1.65 and 1.57
same,Response,GEM 100 nM + ATRi 3 nM,1.68 and 1.66 and 1.64
same,Response,GEM 100 nM + ATRi 10 nM,1.57 and 1.53 and 1.56
same,Response,GEM 100 nM + ATRi 30 nM,1.53 and 1.59 and 1.47
same,Response,GEM 300 nM + ATRi 3 nM,1.57 and 1.60 and 1.54
same,Response,GEM 300 nM + ATRi 10 nM,1.52 and 1.50
same,Response,GEM 300 nM + ATRi 30 nM,1.48 and 1.44 and 1.43
same,Response,GEM 1000 nM + ATRi 3 nM,1.57 and 1.62
same,Response,GEM 1000 nM + ATRi 10 nM,1.40 and 1.55 and 1.43
same,Response,GEM 1000 nM + ATRi 30 nM,1.36 and 1.45 and 1.40
same,Response,GEM 3000 nM + ATRi 3 nM,1.36 and 1.58 and 1.49
same,Response,GEM 3000 nM + ATRi 10 nM,1.38 and 1.44 and 1.37
same,Response,GEM 3000 nM + ATRi 30 nM,1.32 and 1.42 and 1.36
same,AsPC-1 viability (ratio),[5],0.9 ratio
same,AsPC-1 viability mean (ratio),[5],0.59 ratio
same,Raw data (confluence at 72 h/confluence at 0 h),[5],2.89
same,AsPC-1 viability (ratio),[6],1.01 ratio
same,AsPC-1 viability mean (ratio),[6],0.99 ratio
same,Raw data (confluence at 72 h/confluence at 0 h),[6],3.24
same,AsPC-1 viability (ratio),[7],0.95 ratio
same,AsPC-1 viability mean (ratio),[7],0.48 ratio
same,Raw data (confluence at 72 h/confluence at 0 h),[7],3.04
same,AsPC-1 viability (ratio),[8],0.63 ratio
same,AsPC-1 viability mean (ratio),[8],0.45 ratio
same,Raw data (confluence at 72 h/confluence at 0 h),[8],2.03
same,AsPC-1 viability (ratio),[9],0.44 ratio
same,AsPC-1 viability mean (ratio),[9],0.4 ratio
same,Raw data (confluence at 72 h/confluence at 0 h),[9],1.4
same,AsPC-1 viability (ratio),[10],0.37 ratio
same,AsPC-1 viability mean (ratio),[10],0.54 ratio
same,Raw data (confluence at 72 h/confluence at 0 h),[10],1.19
same,AsPC-1 viability (ratio),[11],0.33 ratio
same,AsPC-1 viability mean (ratio),[11],0.49 ratio
same,Raw data (confluence at 72 h/confluence at 0 h),[11],1.04
same,AsPC-1 viability (ratio),[12],0.27 ratio
same,AsPC-1 viability mean (ratio),[12],0.45 ratio
same,Raw data (confluence at 72 h/confluence at 0 h),[12],0.87
same,AsPC-1 viability (ratio),[13],1.01 ratio
same,AsPC-1 viability mean (ratio),[13],0.6 ratio
same,Raw data (confluence at 72 h/confluence at 0 h),[13],4.15
same,AsPC-1 viability (ratio),[14],1 ratio
same,AsPC-1 viability mean (ratio),[14],1.08 ratio
same,Raw data (confluence at 72 h/confluence at 0 h),[14],4.13
same,AsPC-1 viability (ratio),[15],0.94 ratio
same,AsPC-1 viability mean (ratio),[15],0.49 ratio
same,Raw data (confluence at 72 h/confluence at 0 h),[15],3.88
same,AsPC-1 viability (ratio),[16],0.73 ratio
same,AsPC-1 viability mean (ratio),[16],0.44 ratio
same,Raw data (confluence at 72 h/confluence at 0 h),[16],3.03
same,AsPC-1 viability (ratio),[17],0.38 ratio
same,AsPC-1 viability mean (ratio),[17],0.4 ratio
same,Raw data (confluence at 72 h/confluence at 0 h),[17],1.58
same,AsPC-1 viability (ratio),[18],0.31 ratio
same,AsPC-1 viability mean (ratio),[18],0.53 ratio
same,Raw data (confluence at 72 h/confluence at 0 h),[18],1.27
same,AsPC-1 viability (ratio),[19],0.28 ratio
same,AsPC-1 viability mean (ratio),[19],0.92 ratio
same,Raw data (confluence at 72 h/confluence at 0 h),[19],1.17
same,AsPC-1 viability (ratio),[20],0.29 ratio
same,AsPC-1 viability mean (ratio),[20],0.47 ratio
same,Raw data (confluence at 72 h/confluence at 0 h),[20],1.19
same,AsPC-1 viability (ratio),[21],1.02 ratio
same,AsPC-1 viability mean (ratio),[21],0.58 ratio
same,Raw data (confluence at 72 h/confluence at 0 h),[21],4.1
same,AsPC-1 viability (ratio),[22],0.97 ratio
same,AsPC-1 viability mean (ratio),[22],0.53 ratio
same,Raw data (confluence at 72 h/confluence at 0 h),[22],3.9
same,AsPC-1 viability (ratio),[23],0.94 ratio
same,AsPC-1 viability mean (ratio),[23],0.35 ratio
same,Raw data (confluence at 72 h/confluence at 0 h),[23],3.77
same,AsPC-1 viability (ratio),[24],0.8 ratio
same,AsPC-1 viability mean (ratio),[24],0.35 ratio
same,Raw data (confluence at 72 h/confluence at 0 h),[24],3.2
same,AsPC-1 viability (ratio),[25],0.41 ratio
same,AsPC-1 viability mean (ratio),[25],0.34 ratio
same,Raw data (confluence at 72 h/confluence at 0 h),[25],1.63
same,AsPC-1 viability (ratio),[26],0.33 ratio
same,AsPC-1 viability mean (ratio),[26],0.47 ratio
same,Raw data (confluence at 72 h/confluence at 0 h),[26],1.34
same,AsPC-1 viability (ratio),[27],0.29 ratio
same,AsPC-1 viability mean (ratio),[27],0.35 ratio
same,Raw data (confluence at 72 h/confluence at 0 h),[27],1.18
same,AsPC-1 viability (ratio),[28],0.25 ratio
same,AsPC-1 viability mean (ratio),[28],0.34 ratio
same,Raw data (confluence at 72 h/confluence at 0 h),[28],1
same,pEC50,"ASPC1, 72 h, AsPC1, Experiment ATRi (ATR inhibitor alone), single replicates R1-R3",6.97
same,pEC50,"ASPC1, 72 h, read-out: EC50 (cell growth), ATR inhibitor as single agent",6.89
same,EC50,"ASPC1, 72 h, read-out: EC50 mean [nM], AsPC1, Experiment ATRi (ATR inhibitor alone), mean of replicates",128 nM
same,EC50,"ASPC1, 72 h, read-out: pEC50, AsPC1 (converted), Experiment ATRi (ATR inhibitor alone), single replicates R1-R3",107 nM
same,EC50,"ASPC1, read-out: EC50 mean [nM], AsPC1, Experiment ATRi (ATR inhibitor alone), mean of replicates",128 nM
same,Ratio,"GEM 0 nM, ATRi 3 nM",0.90 and 0.92 and 1.01 and 0.83 and 1.02 and 0.89
same,Ratio,"GEM 0 nM, ATRi 10 nM",1.01 and 1.02 and 1.00 and 0.91 and 0.97 and 0.98
same,Ratio,"GEM 0 nM, ATRi 30 nM",0.95 and 0.94 and 0.89
same,Ratio,"GEM 0 nM, ATRi 100 nM",0.63 and 0.73 and 0.80
same,Ratio,"GEM 0 nM, ATRi 300 nM",0.44 and 0.38 and 0.41
same,Ratio,"GEM 0 nM, ATRi 1000 nM",0.37 and 0.31 and 0.33
same,Ratio,"GEM 0 nM, ATRi 3000 nM",0.33 and 0.28 and 0.29
same,Ratio,"GEM 0 nM, ATRi 10000 nM",0.27 and 0.29 and 0.25
same,Ratio,GEM 1 nM + ATRi 3 nM,0.98 and 0.92 and 0.96
same,Ratio,GEM 1 nM + ATRi 10 nM,1.01 and 0.95 and 0.97
same,Ratio,GEM 1 nM + ATRi 30 nM,0.89 and 0.91 and 0.87
same,Ratio,GEM 3 nM + ATRi 3 nM,0.98 and 0.93
same,Ratio,GEM 3 nM + ATRi 10 nM,0.94 and 0.89 and 0.91
same,Ratio,GEM 3 nM + ATRi 30 nM,0.95 and 0.82 and 0.85
same,Ratio,GEM 10 nM + ATRi 3 nM,0.87 and 0.86
same,Ratio,GEM 10 nM + ATRi 10 nM,0.79 and 0.67 and 0.68
same,Ratio,GEM 10 nM + ATRi 30 nM,0.59 and 0.46 and 0.49
same,Ratio,GEM 30 nM + ATRi 3 nM,0.66 and 0.55 and 0.53
same,Ratio,GEM 30 nM + ATRi 10 nM,0.51 and 0.39 and 0.41
same,Ratio,GEM 30 nM + ATRi 30 nM,0.55 and 0.40 and 0.39
same,Ratio,GEM 100 nM + ATRi 3 nM,0.52 and 0.40 and 0.41
same,Ratio,GEM 100 nM + ATRi 10 nM,0.49 and 0.37 and 0.39
same,Ratio,GEM 100 nM + ATRi 30 nM,0.48 and 0.38 and 0.37
same,Ratio,GEM 300 nM + ATRi 3 nM,0.49 and 0.39 and 0.38
same,Ratio,GEM 300 nM + ATRi 10 nM,0.47 and 0.37
same,Ratio,GEM 300 nM + ATRi 30 nM,0.46 and 0.35 and 0.36
same,Ratio,GEM 1000 nM + ATRi 3 nM,0.49 and 0.39
same,Ratio,GEM 1000 nM + ATRi 10 nM,0.44 and 0.38 and 0.36
same,Ratio,GEM 1000 nM + ATRi 30 nM,0.43 and 0.35
same,Ratio,GEM 3000 nM + ATRi 3 nM,0.43 and 0.38 and 0.37
same,Ratio,GEM 3000 nM + ATRi 10 nM,0.43 and 0.35 and 0.34
same,Ratio,GEM 3000 nM + ATRi 30 nM,0.41 and 0.34
